The target in experiment [1] is T1, human lipocalin 2 (hNGAL) mutein SEQ ID NO: 35 (Homo sapiens, UniProt P80188, A60T/C107S/D97H/K145I/K154W/K93R/L123T/L56V/L90R/N85Q/Q48H/Q69G/R101D/R92I/S147R/S88D/T74A/W99Y/Y126Q/Y152I/Y72N).
T1 construct: made in house; host or cells: E. coli
Nature of the experiment: SPR (Biacore T200), mutein SEQ ID NO: 35. The class given is binding.
Experimental: (§6) In a Surface Plasmon Resonance (SPR) based assay a Biacore T200 instrument (GE Healthcare) was used to measure the binding affinity of muteins to pyoverdine I succinyl, -succinamid, -α-ketoglutaryl with complexed iron ion or to pyoverdine II succinyl, -succinamid, -α-ketoglutaryl with complexed iron ion or to pyoverdine III succinyl, -succinamid, -α-ketoglutaryl with complexed iron ion. Muteins selected for binding to pyoverdines and negative control (SEQ ID NO: 64) were biotinylated for 2 h at room temperature applying an appropriate excess of EZ-Link NHS-PEG4-Biotin (Thermo, Cat#21329) followed by separation of non-reacted Biotin using a Zeba Spin Desalting Plate (Thermo, Cat#21329) according to the manufactures instructions.
(§7) Applying a flow rate of 30 μl/min, a single cycle or multi cycle kinetics approach was used with a sample contact time of 120-180 s and a dissociation time of 900-2400 s. […] After ligand immobilization, for analysis using single cycle kinetics all 4-5 concentrations of Pvd were applied consecutively in ascending order before the dissociation was monitored. For analysis using multi cycle kinetics 4 dilutions of Pvd were applied, each followed a dissociation phase. All measurements were performed at 25° C. […] Data were evaluated with Biacore T200 Evaluation software (V 1.0). Double referencing was used. A 1:1 Binding model was used to fit the raw data.

Experiment [2] concerns the target natural wild-type hNGAL (human lipocalin 2) (Homo sapiens, UniProt P80188). Particulars: Peek et al. 2012; cited from earlier work.
Experiment [3] deals with T2, human lipocalin 2 (hNGAL) mutein SEQ ID NO: 53 (Homo sapiens, UniProt P80188, A60L/C107S/D97K/I61A/K154W/K93H/L123Q/L56E/L62R/L90R/N116L/N85D/Q69M/R101V/S125P/S147V/S88E/W99D/Y120D/Y126E/Y72M).
T2 construct: made in house; host or cells: E. coli
T2 sequence (P80188 21-198 with the stated changes): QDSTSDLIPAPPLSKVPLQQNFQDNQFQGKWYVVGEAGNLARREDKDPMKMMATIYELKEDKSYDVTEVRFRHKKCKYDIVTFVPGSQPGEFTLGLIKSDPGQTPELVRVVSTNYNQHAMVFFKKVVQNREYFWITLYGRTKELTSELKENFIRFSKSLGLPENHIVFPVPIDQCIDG
As to the kind of experiment: SPR (Biacore T200), mutein SEQ ID NO: 53. The class given is binding. Particulars: 25° C. Here is the method:
(§1) In a Surface Plasmon Resonance (SPR) based assay a Biacore T200 instrument (GE Healthcare) was used to measure the binding affinity of muteins to pyoverdine I succinyl, -succinamid, -α-ketoglutaryl with complexed iron ion or to pyoverdine II succinyl, -succinamid, -α-ketoglutaryl with complexed iron ion or to pyoverdine III succinyl, -succinamid, -α-ketoglutaryl with complexed iron ion. Muteins selected for binding to pyoverdines and negative control (SEQ ID NO: 64) were biotinylated for 2 h at room temperature applying an appropriate excess of EZ-Link NHS-PEG4-Biotin (Thermo, […]) followed by separation of non-reacted Biotin using a Zeba Spin Desalting Plate (Thermo, […]) according to the manufactures instructions.
In the SPR affinity assay, biotinylated muteins and negative control were captured on a sensor chip CAP using the Biotin CAPture Kit (GE Healthcare): Sensor Chip CAP is pre-immobilized with an ssDNA oligo. […]
(§2) Applying a flow rate of 30 μl/min, a single cycle or multi cycle kinetics approach was used with a sample contact time of 120-180 s and a dissociation time of 900-2400 s. […] After ligand immobilization, for analysis using single cycle kinetics all 4-5 concentrations of Pvd were applied consecutively in ascending order before the dissociation was monitored. […] Data were evaluated with Biacore T200 Evaluation software (V 1.0). […]

Experiment [4] deals with T3, human lipocalin 2 (hNGAL) mutein SEQ ID NO: 36 (Homo sapiens, UniProt P80188, A60T/C107S/D97H/K145I/K154W/K93R/L123T/L56V/L90R/N85D/Q69G/R101D/R92I/S147R/S88D/T74A/W99Y/Y126Q/Y152I/Y72N).
T3 construct: made in house; host or cells: E. coli
T3 sequence (P80188 21-198 with the stated changes): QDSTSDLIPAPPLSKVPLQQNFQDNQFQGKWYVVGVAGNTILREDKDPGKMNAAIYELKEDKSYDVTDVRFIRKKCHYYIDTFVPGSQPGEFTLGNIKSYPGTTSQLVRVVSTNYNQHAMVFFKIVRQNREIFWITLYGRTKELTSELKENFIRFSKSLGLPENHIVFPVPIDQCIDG
Nature of the experiment: SPR (Biacore T200), mutein SEQ ID NO: 36. Particulars: 25° C. The class given is binding.
Experimental: as §6

Experiment [5] deals with T4, human lipocalin 2 (hNGAL) mutein SEQ ID NO: 32 (Homo sapiens, UniProt P80188, A60E/C107S/D97N/E64D/I61V/K145N/K154W/K93N/L123V/L56V/L90R/N116K/N85D/Q48H/Q69G/R101E/R92H/S147K/S88E/W99F/Y120N/Y126M/Y152G/Y72P).
T4 construct: made in house; host or cells: E. coli
T4 sequence (P80188 21-198 with the stated changes): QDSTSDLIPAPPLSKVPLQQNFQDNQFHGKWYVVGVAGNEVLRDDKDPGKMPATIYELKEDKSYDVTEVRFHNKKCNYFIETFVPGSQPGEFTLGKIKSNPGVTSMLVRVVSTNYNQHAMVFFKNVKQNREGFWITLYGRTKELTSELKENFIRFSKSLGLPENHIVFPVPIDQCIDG
Nature of the experiment: SPR (Biacore T200), mutein SEQ ID NO: 32. The settings on record: 25° C. In kind it is binding.
Experimental: as §6, §7

For experiment [6], the target named is T5, human lipocalin 2 (hNGAL) mutein SEQ ID NO: 16 (Homo sapiens, UniProt P80188, A60T/C107S/D97I/I100T/I61A/K145Y/K154N/K93E/K95E/L123Q/L56W/L90Q/N116G/N85D/Q69P/R101I/R92P/S147T/S88D/T156A/T74V/W99S/Y120S/Y126H/Y152G/Y72P).
T5 construct: made in house; host or cells: E. coli
T5 sequence (P80188 21-198 with the stated changes): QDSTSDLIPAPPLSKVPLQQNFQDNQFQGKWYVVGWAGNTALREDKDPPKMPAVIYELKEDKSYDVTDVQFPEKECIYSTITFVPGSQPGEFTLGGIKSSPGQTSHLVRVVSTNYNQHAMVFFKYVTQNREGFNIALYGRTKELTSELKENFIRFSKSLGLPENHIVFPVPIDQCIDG
Nature of the experiment: SPR (Biacore T200), mutein SEQ ID NO: 16. In kind it is binding. The settings on record: 25° C.
Experimental: as §6

For experiment [7], the target named is T6, human lipocalin 2 (hNGAL) mutein SEQ ID NO: 11 (Homo sapiens, UniProt P80188, A60T/C107S/D97V/I61T/K145Y/K154N/K93D/L123N/L56W/L90Q/N116G/Q48H/Q69P/R101I/R92P/S147V/S88D/W99S/Y120N/Y126H/Y152G/Y72P).
T6 construct: made in house; host or cells: E. coli
T6 sequence (P80188 21-198 with the stated changes): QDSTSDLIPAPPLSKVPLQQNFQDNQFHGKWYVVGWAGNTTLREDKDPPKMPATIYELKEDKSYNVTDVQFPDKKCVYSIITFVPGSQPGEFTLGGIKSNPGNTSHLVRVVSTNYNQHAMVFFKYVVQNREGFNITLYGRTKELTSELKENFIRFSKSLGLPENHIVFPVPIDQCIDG
As to the kind of experiment: SPR (Biacore T200), mutein SEQ ID NO: 11. The class given is binding. Particulars: 25° C.
Experimental: as §6

For experiment [8], the target named is T7, human lipocalin 2 (hNGAL) mutein SEQ ID NO: 13 (Homo sapiens, UniProt P80188, A60T/C107S/D97I/I100T/I61T/K145Y/K154N/K93E/K95E/L123Q/L56W/L90Q/N116G/Q48H/Q69P/R101I/R92P/S147T/S88D/T74V/W99S/Y120S/Y126H/Y152G/Y72P).
T7 construct: made in house; host or cells: E. coli
T7 sequence (P80188 21-198 with the stated changes): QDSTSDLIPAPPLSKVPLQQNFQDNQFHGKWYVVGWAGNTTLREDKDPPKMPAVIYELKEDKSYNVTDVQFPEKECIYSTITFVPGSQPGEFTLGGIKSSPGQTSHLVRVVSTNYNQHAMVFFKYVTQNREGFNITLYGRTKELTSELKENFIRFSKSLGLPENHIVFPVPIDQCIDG
As to the kind of experiment: SPR (Biacore T200), mutein SEQ ID NO: 13. In kind it is binding. Particulars: 25° C.
Experimental: as §6

The target in experiment [9] is T8, human lipocalin 2 (hNGAL) mutein SEQ ID NO: 9 (Homo sapiens, UniProt P80188, A60T/C107S/D97I/I61T/K145Y/K154N/K93D/L123D/L56W/L90Q/N116G/Q48H/Q69P/R101I/R92P/S147V/S88D/W99S/Y120N/Y126H/Y152G/Y72P).
T8 construct: made in house; host or cells: E. coli
T8 sequence (P80188 other isoform, or with tags, fused parts or gaps with the stated changes): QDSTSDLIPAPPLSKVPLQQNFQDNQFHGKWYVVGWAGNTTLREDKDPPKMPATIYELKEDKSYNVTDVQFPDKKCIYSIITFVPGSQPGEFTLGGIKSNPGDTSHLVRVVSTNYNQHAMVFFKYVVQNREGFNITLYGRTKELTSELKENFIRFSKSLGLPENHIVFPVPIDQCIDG
Nature of the experiment: SPR (Biacore T200), mutein SEQ ID NO: 9. The class given is binding. The settings on record: 25° C.
Experimental: as §6

Experiment [10] deals with T9, human lipocalin 2 (hNGAL) mutein SEQ ID NO: 33 (Homo sapiens, UniProt P80188, A60E/C107S/D97N/E64D/I61V/K145N/K154W/K93N/L123V/L56V/L90R/N116K/N85Q/Q48H/Q69G/R101E/R92H/S147K/S88E/W99F/Y120N/Y126M/Y152G/Y72P).
T9 construct: made in house; host or cells: E. coli
T9 sequence (P80188 21-198 with the stated changes): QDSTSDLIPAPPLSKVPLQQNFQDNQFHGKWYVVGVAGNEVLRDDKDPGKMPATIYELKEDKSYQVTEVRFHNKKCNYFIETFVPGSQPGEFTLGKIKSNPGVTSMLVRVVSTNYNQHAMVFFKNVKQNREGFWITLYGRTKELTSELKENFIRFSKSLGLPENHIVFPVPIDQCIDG
As to the kind of experiment: SPR (Biacore T200), mutein SEQ ID NO: 33. The class given is binding. Particulars: 25° C.
Experimental: as §6, §7

Experiment [11] addresses T10, human lipocalin 2 (hNGAL) mutein SEQ ID NO: 10 (Homo sapiens, UniProt P80188, A60T/C107S/D97T/I61T/K145Y/K154N/K93E/L123E/L56W/L90Q/N116D/Q48H/Q69P/R101I/R92P/S147D/S88D/V131M/W99S/Y120N/Y126H/Y152G/Y72P).
T10 construct: made in house; host or cells: E. coli
Nature of the experiment: SPR (Biacore T200), mutein SEQ ID NO: 10. The class given is binding. Particulars: 25° C.
Experimental: as §6

In experiment [12] the target is T11, human lipocalin 2 (hNGAL) mutein SEQ ID NO: 8 (Homo sapiens, UniProt P80188, A60T/C107S/D97I/I100T/I61T/K145Y/K154N/K93E/L123Q/L56W/L90Q/N116G/Q48H/Q69P/R101I/R92P/S147I/S88D/W99S/Y120S/Y126H/Y152G/Y72P).
T11 construct: made in house; host or cells: E. coli
T11 sequence (P80188 other isoform, or with tags, fused parts or gaps with the stated changes): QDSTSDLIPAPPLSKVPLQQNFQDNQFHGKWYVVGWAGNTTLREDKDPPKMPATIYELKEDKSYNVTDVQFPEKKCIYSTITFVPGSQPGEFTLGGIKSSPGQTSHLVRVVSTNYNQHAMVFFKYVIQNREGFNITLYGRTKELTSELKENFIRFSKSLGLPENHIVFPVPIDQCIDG
Nature of the experiment: SPR (Biacore T200), mutein SEQ ID NO: 8. The class given is binding. Particulars: 25° C.
Experimental: as §6

The target of experiment [13] is T12, human lipocalin 2 (hNGAL) muteins from affinity optimization of SEQ ID NO: 55 (Homo sapiens, UniProt P80188).
T12 construct: C-terminal SA linker and Strep-tag II; E. coli
T12 sequence (P80188 21-198, stated change not applied): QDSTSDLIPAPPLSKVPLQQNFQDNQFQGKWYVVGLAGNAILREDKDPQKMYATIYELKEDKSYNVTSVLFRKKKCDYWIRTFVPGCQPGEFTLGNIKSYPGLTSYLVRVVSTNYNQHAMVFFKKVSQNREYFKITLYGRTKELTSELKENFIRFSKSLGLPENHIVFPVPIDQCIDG
As to the kind of experiment: Solution binding ELISA, muteins from affinity optimization of SEQ ID NO: 55. Here is the method: (§3) Solution binding of muteins was assayed by a “Solution binding ELISA”, the principle of which was as follows: a constant concentration of the tested mutein was incubated with variable concentrations of ligands (Pvd I s, sa, aKG+/−Fe/Pvd II s, sa, aKG+/−Fe/Pvd III s, sa, aKG+/−Fe/Pch+/−Fe) for 1 h. After this pre-incubation in solution, an aliquot of the mutein/ligand mixture was transferred to an ELISA plate with biotinalyted Pvd I s (+Fe), Pvd II s (+Fe), Pvd III s (+Fe) or Pch immobilized via Neutravidin to measure the remaining concentration of free muteins. The concentration of free (non ligand-bound) muteins was determined via a quantitative ELISA setup.
(§4) In detail, a 384-well plate suitable for fluorescence measurements (Greiner FLUOTRAC™ 600, black flat bottom, high-binding) was coated with 20 μl of Neutravidin at a concentration of 5 μg/ml in PBS over night at 4 C. […]
(§5) The residual supernatants were discarded and 20 μl HRP-labeled anti-hNGAL antibody was added at a predetermined optimal concentration in PBS-T/BSA and incubated for 1 h at RT. […] The fluorescence intensity of every well on the plate was read using a fluorescence microplate reader (Tecan or Molecular Devices). To evaluate the data, free mutein concentration, c(mutein)free, was calculated based on the standard curve results, and plotted versus ligand concentration, c(Ligand). […]

Experiment [14] deals with T13, human lipocalin 2 (hNGAL) mutein SEQ ID NO: 56 (Homo sapiens, UniProt P80188, A60F/C107S/D97A/I61H/K145G/K154V/K93A/L123M/L56M/L90P/N116A/Q48H/Q69S/R101I/R92W/S147W/S88H/W99K/Y120G/Y126W/Y152T/Y72P).
T13 construct: made in house; host or cells: E. coli
T13 sequence (P80188 21-198 with the stated changes): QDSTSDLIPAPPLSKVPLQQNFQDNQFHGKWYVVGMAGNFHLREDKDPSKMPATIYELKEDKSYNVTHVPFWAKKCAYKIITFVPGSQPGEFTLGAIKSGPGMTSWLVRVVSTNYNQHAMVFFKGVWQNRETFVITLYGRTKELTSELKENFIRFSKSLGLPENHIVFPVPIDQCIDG
As to the kind of experiment: Solution binding ELISA, mutein SEQ ID NO: 56.
Experimental: (§8) In detail, a 384-well plate suitable for fluorescence measurements (Greiner FLUOTRAC™ 600, black flat bottom, high-binding) was coated with 20 μl of Neutravidin at a concentration of 5 μg/ml in PBS over night at 4 C. After washing, the Neutravidin-coated wells were blocked with 100 μl blocking buffer containing 0.1% Tween 20 and 2% BSA (PBS-T/BSA) for 1 h at room temperature.
(§9) The residual supernatants were discarded and 20 μl HRP-labeled anti-hNGAL antibody was added at a predetermined optimal concentration in PBS-T/BSA and incubated for 1 h at RT. […] After washing, 20 μl fluorogenic HRP substrate (QuantaBlu, Thermo) was added to each well, and the reaction was allowed to proceed for 15 to 60 minutes. The fluorescence intensity of every well on the plate was read using a fluorescence microplate reader (Tecan or Molecular Devices). […] Curve fitting was performed using GraphPad Prism 4 software.

Experiment [15] addresses T14, human lipocalin 2 (hNGAL) mutein SEQ ID NO: 57 (Homo sapiens, UniProt P80188, A60Y/C107S/D97R/I61W/K145L/K154N/K93R/L123Q/L56V/L90R/N116P/Q48H/Q69A/R101W/R92W/S147R/S88D/W99D/Y120E/Y126R/Y152A).
T14 construct: made in house; host or cells: E. coli
Nature of the experiment: Solution binding ELISA, mutein SEQ ID NO: 57.
Experimental: as §8, §9

In experiment [16] the target is T15, human lipocalin 2 (hNGAL) muteins from affinity optimization of SEQ ID NO: 56 (Homo sapiens, UniProt P80188).
T15 construct: C-terminal SA linker and Strep-tag II; E. coli
T15 sequence (P80188 21-198, stated change not applied): as the sequence (P80188 21-198, stated change not applied) above
Nature of the experiment: Solution binding ELISA, muteins from affinity optimization of SEQ ID NO: 56. As for the experimental part: as §3, §4, §5

Experiment [17] deals with negative control lipocalin SEQ ID NO: 64 (Homo sapiens, UniProt P80188, C107S/Q48H). As to the kind of experiment: SPR (Biacore T200), negative control SEQ ID NO: 64. In kind it is binding. Particulars: 200 nM. Here is the method:
as §1
In the SPR affinity assay, biotinylated muteins and negative control were captured on a sensor chip CAP using the Biotin CAPture Kit (GE Healthcare): Sensor Chip CAP is pre-immobilized with an ssDNA oligo. Undiluted Biotin CAPture Reagent (streptavidin conjugated with the complementary ss-DNA oligo) was applied at a flow rate of 2 μl/min for 300 s. Subsequently, 1 μg/ml to 100 μg/mL of biotinylated muteins or negative control were applied for 300 s at a flow rate of 5 μl/min. The reference channel was loaded with Biotin CAPture Reagent only.
as §2, with “monitored. For analysis using multi cycle kinetics 4 dilutions of Pvd were applied, each followed a dissociation phase. All measurements were performed at 25° C.” for “monitored.”, “1.0). Double referencing was used. A 1:1 Binding model was used to fit the raw data.” for “1.0).”

T14 sequence (P80188 21-198 with the stated changes): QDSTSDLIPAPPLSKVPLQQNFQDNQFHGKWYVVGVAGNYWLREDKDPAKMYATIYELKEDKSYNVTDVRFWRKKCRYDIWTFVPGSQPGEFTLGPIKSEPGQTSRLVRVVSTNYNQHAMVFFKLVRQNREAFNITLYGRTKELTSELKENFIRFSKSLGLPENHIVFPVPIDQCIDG
Chain of natural wild-type hNGAL (human lipocalin 2) (P80188 21-198): as the sequence (P80188 21-198, stated change not applied) above
T1 sequence (P80188 21-198 with the stated changes): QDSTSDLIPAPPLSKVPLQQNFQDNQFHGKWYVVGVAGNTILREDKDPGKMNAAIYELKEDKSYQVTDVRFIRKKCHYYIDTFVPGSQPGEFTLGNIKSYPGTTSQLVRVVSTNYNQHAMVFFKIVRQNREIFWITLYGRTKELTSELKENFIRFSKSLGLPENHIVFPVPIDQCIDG
Chain of negative control lipocalin SEQ ID NO: 64 (P80188 21-198 Q48H/C107S): as the sequence (P80188 21-198, stated change not applied) above, with Q28H, C87S counted along it
T10 sequence (P80188 other isoform, or with tags, fused parts or gaps with the stated changes): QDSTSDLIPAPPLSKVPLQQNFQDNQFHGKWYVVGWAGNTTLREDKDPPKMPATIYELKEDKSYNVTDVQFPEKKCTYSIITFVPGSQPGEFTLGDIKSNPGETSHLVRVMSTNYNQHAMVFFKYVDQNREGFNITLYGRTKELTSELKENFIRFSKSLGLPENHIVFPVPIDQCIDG

On to `O=C(N[C@H]1COC(=O)[C@@H](NC(=O)c2cccc(O)c2O)COC(=O)[C@@H](NC(=O)c2cccc(O)c2O)COC1=O)c1cccc(O)c1O` [Enterobactin, enterobactin, reference compound], for which, in [1] (2 μM for all analytes), the “specificity and crossreactivity (binding)” value was “absence of binding”. In [2], the “binding to wild-type hNGAL” value is “high affinity”.

For the molecule `O=C(N[C@H]1COC(=O)[C@@H](NC(=O)c2cccc(O)c2O)COC(=O)[C@@H](NC(=O)c2cccc(O)c2O)COC1=O)c1cccc(O)c1O.[Fe+3]` [Fe-Enterobactin, enterobactin], the KD result in experiment [1] (25° C.), in experiment [3], in [4], in experiment [5], in [6] and in experiment [7] was “no bdg” each time. Besides, the KD result in experiment [8], in [9], in experiment [10], in [11] and in experiment [12] was “no bdg” in each case.

`CN1C([C@H]2CSC(c3ccccc3O)=N2)SC[C@H]1C(=O)O` (stereo partly shown) [pch (−Fe), pyochelin]: the improved affinity entry in experiment [13] (versus SEQ ID NO: 55) is “more than 75 fold”. The “affinity (in words)” value in experiment [14] and in experiment [15] was “weak affinity or not at all” in each case.

As for Pyoverdine, the “binding to wild-type hNGAL” value in [2] is reported as “did not bind”.

On to `CN1C([C@H]2CSC(c3ccccc3O)=N2)SC[C@H]1C(=O)O.[Fe+3]` (stereo partly shown) [pch (+Fe), pyochelin], for which the “affinity (in words)” value in experiment [13] (solution binding ELISA) was “single digit nM affinity”; in [14], “two- to three digit nM affinity”; in [15] it was “two- to three digit nM affinity”; in experiment [16], “no or weak affinity”. In addition, in experiment [17], the “absence of binding to negative control” value is “absence of binding”.

The values are drawn from patent US10329334B2 (SANOFI, priority 2015, dated 2019).
